Type: physicochemical
Conditions: temperature in which 50 mg of substance is dissolved in 1 ml of a 1:4 benzyl benzoate/castor oil mixture; lower temperature = better solubility

Substance | Solubility [°C]
(Z)-6′-(4-Cyanophenyl)-9,11α-dihydro-17β-hydroxy-17α-[3-[(1-oxononyl)oxy]-1-propenyl]-4′H-naphtho[3′,2′,1′:10,9,11]estr-4-en-3-one [Example 4] | 23
(Z)-6′-(4-Cyanophenyl)-9,11α-dihydro-17β-hydroxy-17α-[3-[(1-oxopentyl)oxy]-1-propenyl]-4′H-naphtho[3′,2′,1′:10,9,11]estr-4-en-3-one [Example 2] | 50
(Z)-6′-(4-Cyanophenyl)-17α-[3-(3-cyclopentyl-1-oxopropoxy)-1-propenyl]-9,11α-dihydro-17β-hydroxy-4′H-naphtho[3′,2′,1′:10,9,11]estr-4-en-3-one [Example 8] | 23
(Z)-6′-(4-Fluorophenyl)-17α-(3-hydroxyprop-1-enyl)-9, 11α-dihydro-17β-hydroxy-4′-naphtho]3′,2′,1′:10,9,11]estr-4-en-3-one [Ref. 4, reference compound] | 100
(Z)-9,11α-Dihydro-17α-[3-(1,4-dioxo-4-ethoxybutoxy)-1-propenyl]-17β-hydroxy-6′-(3-pyridinyl)-4′H-naphtho[3′,2′,1′:10,9,11]estr-4-en-3-one [Example 22] | 50
(Z)-9,11α-Dihydro-17α-[3-(3,3-dimethyl-1-oxobutoxy)-1-propenyl]-6′-(3-pyridinyl)-17βhydroxy-4′H-naphtho[3′,2′,1′:10,9,11]estr-4-en-3-one [Example 21] | 50
(Z)-9,11α-Dihydro-17β-hydroxy-17α-[3-(1-oxopropoxy)-1-propenyl]-6′-(3-pyridinyl)-4′H-naphtho[3′,2′,1′:10,9,11]estr-4-en-3-one [Example 18] | 50
(Z)-9,11α-Dihydro-17β-hydroxy-17α-[3-[(1-oxopentyl)oxy]-1-propenyl]-6′-(3-pyridinyl)-4′H-naphtho[3′,2′,1′:10,9,11]estr-4-en-3-one [Example 19] | 50
[S-(Z)]-6′-(4-Cyanophenyl)-9,11α-dihydro-17α-[3-[2-[[(1,1-dimethylethoxy)carbonyl]amino]-3-methyl-1-oxobutoxy]-17β-hydroxy-4′H-naphtho[3′,2′,1′:10,9,11]estr-4-en-3-one [Example 17] | 50
[S-(Z)]-6′-(4-Fluorophenyl)-9,11α-dihydro-17α-[3-[2-[[(1,1-dimethylethoxy)carbonyl]amino]-1-oxopropoxy]-1-propenyl]-17β-hydroxy-4′H-naphtho[3′,2′,1′:10,9,11]estr-4-en-3-one [Example 41] | 23
[S-(Z)]-9,11α-Dihydro-17α-[3-[2-[[(1,1-dimethylethoxy)carbonyl]amino]-1-oxopropoxy]-1-propenyl]-17β-hydroxy-6′-(3-pyridinyl)-4′H-naphtho[3′,2′,1′:10,9,11]estr-4-en-3-one [Example 24] | 50
[S-(Z)]-9,11α-Dihydro-17α-[3-[2-[[(1,1-dimethylethoxy)carbonyl]amino]-3-methyl-1-oxobutoxy]-1-propenyl]-17βhydroxy-6′-(3-pyridinyl)-4′H-naphtho[3′,2′,1′:10,9,11]estr-4-en-3-one [Example 25] | 50
[S-(Z)]-9,11α-Dihydro-17α-[3-[[[(1,1-dimethylethoxy)carbonyl]amino]acetyloxy]-1-propenyl]-17β-hydroxy-6′-(3-pyridinyl)-4′H-naphtho[3′,2′,1′:10,9,11]estr-4-en-3-one [Example 35] | 23
[S-(Z)]-17α-[3-(2-Amino-1-oxopropoxy)-1-propenyl]-6′-(4-fluorophenyl)-9,11α-dihydro-17β-hydroxy-4′H-naphtho[3′,2′,1′:10,9,11]estr-4-en-3-one [Example 40] | 50
[S-(Z)]-17α-[3-(2-Amino-3-methyl-1-oxobutoxy)-1-propenyl]-6′-(4-cyanophenyl)-9,11α-dihydro-17β-hydroxy-4′H-naphtho[3′,2′,1′:10,9,11]estr-4-en-3-one [Example 16] | 100
